According to PubChem BioAssay (NCI):
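Each compound was tested at five concentrations against cells in 96-well plates for 48 hours. The concentration for 50% growth inhibition is given as GI50. TGI denotes the concentration required for complete inhibition of growth.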

What was measured:
Experiment in all cases: NCI tumour cell line growth inhibition, 48 h
IGROV1 ovarian = tested on: IGROV1 ovarian
MCF7 breast = tested on: MCF7 breast
NCI-H226 lung = tested on: NCI-H226 lung
NCI-H522 lung = tested on: NCI-H522 lung
OVCAR-4 ovarian = tested on: OVCAR-4 ovarian
PC-3 prostate = tested on: PC-3 prostate
SF-295 CNS = tested on: SF-295 CNS
SK-OV-3 ovarian = tested on: SK-OV-3 ovarian
TK-10 renal = tested on: TK-10 renal
UACC-257 melanoma = tested on: UACC-257 melanoma

Row | SMILES | GI50 (IGROV1 ovarian) [µM] | TGI (IGROV1 ovarian) [µM] | GI50 (MCF7 breast) [µM] | TGI (MCF7 breast) [µM] | GI50 (NCI-H226 lung) [µM] | TGI (NCI-H226 lung) [µM] | GI50 (NCI-H522 lung) [µM] | TGI (NCI-H522 lung) [µM] | GI50 (OVCAR-4 ovarian) [µM] | TGI (OVCAR-4 ovarian) [µM] | GI50 (PC-3 prostate) [µM] | TGI (PC-3 prostate) [µM] | GI50 (SF-295 CNS) [µM] | TGI (SF-295 CNS) [µM] | GI50 (SK-OV-3 ovarian) [µM] | TGI (SK-OV-3 ovarian) [µM] | GI50 (TK-10 renal) [µM] | TGI (TK-10 renal) [µM] | GI50 (UACC-257 melanoma) [µM] | TGI (UACC-257 melanoma) [µM]
1 | Cc1ccc2[nH]cc(-c3nc(-c4c[nH]c5ncccc45)cs3)c2c1 | > 100 | > 100 | > 100 | > 100 | > 100 | > 100 | > 100 | > 100 | > 100 | > 100 | > 100 | > 100 | > 100 | > 100 | > 100 | > 100 | > 100 | > 100 | > 100 | > 100
2 | CCCC/C=C1\CCC(CN2CCCCC2)C1=O (stereo not given) | – | 36.7 | – | > 100 | – | 63.1 | – | – | – | 48 | – | > 100 | – | 45.5 | – | > 56.2 | – | 28.1 | – | 42
3 | COc1ccc2[nH]c(C(=O)N3CC(CCl)c4ccc(N)cc43)cc2c1 (stereo not given) | – | – | – | > 39.1 | – | > 100 | – | 0.0882 | – | 0.609 | – | 10 | – | – | – | > 100 | – | > 100 | – | –
4 | CC(=O)OC(Cc1cc(C=C(C(F)(F)F)C(F)(F)F)cc(C)n1)(C(F)(F)F)C(F)(F)F | – | 1.58 | – | 0.97 | – | 3.49 | – | – | – | 4.76 | – | 5.34 | – | 8.21 | – | > 51.9 | – | 6.7 | – | –
5 | O=C1C(Br)=CC2([N+](=O)[O-])CCNc3c(O)c4c5c(c3C2=C1Br)=NCCC=5C=N4 (stereo not given) | – | 4.27 | – | 1.72 | – | 6.79 | – | 0.214 | – | 3.7 | – | – | – | 4.63 | – | 13.3 | – | – | – | 0.887
6 | COc1ccc2c3c1OC1CC(O)C=CC31CCN(C)C2 (stereo not given) | – | > 150 | – | > 48.8 | – | > 150 | – | > 150 | – | > 150 | – | – | – | > 150 | – | > 150 | – | – | – | > 150
7 | COC(=O)/C=C\Sc1ccn(/C=C\C(=O)OC)c(=S)n1 | – | 35.2 | – | 36.5 | – | – | – | 31.4 | – | 35.3 | – | 46.5 | – | – | – | – | – | 51.1 | – | > 100
8 | CN(C)c1ccc(N2C(=S)SC(=Nc3ccccc3)C2=Nc2ccccc2)cc1 | – | > 100 | – | > 100 | – | > 100 | – | > 100 | – | > 100 | – | > 100 | – | > 100 | – | > 100 | – | – | – | –
9 | CC1(C)OP23(NC(=O)OC2(C(F)(F)F)c2ccccc2O3)OC1(C)C (stereo not given) | – | – | – | – | – | > 100 | – | > 100 | – | > 100 | – | – | – | > 100 | – | > 100 | – | > 100 | – | > 100
10 | CCOC(=O)/C(O)=C1\C(=O)N(C)C(=O)C1c1ccc(OC)c(OC)c1 (stereo not given) | – | > 100 | – | > 100 | – | > 100 | – | > 100 | – | > 100 | – | – | – | > 100 | – | > 100 | – | – | – | > 100
11 | CC(=O)O[C@H]1CC[C@@]2(C)C(=CC[C@@H]3[C@@H]2CC[C@]2(C)C(c4cccnc4)=CC[C@@H]32)C1 | 26.7 | > 100 | 4.84 | > 100 | 17.7 | > 100 | 38.5 | > 100 | 4.61 | > 100 | 3.98 | > 100 | 2.33 | 8.35 | 5.83 | 95.8 | 29.8 | > 100 | 28.1 | > 100
